Source: US10219516B2, “Molecules having pesticidal utility, and intermediates, compositions, and processes, related thereto” (priority 2015, dated 2019)

Tests used:
[1] = system: Cabbage Looper (Trichoplusia ni, TRIPNI); experiment: Bioassay on Cabbage Looper (CL), 128-well diet tray assay; type: in vivo; details: Trichoplusia ni; Species CL (Cabbage Looper); read-out: CL (Biological Results, rating)
Description: (§1) Certain molecules disclosed in this document were tested against BAW and CL using procedures described in the following examples. In the reporting of the results, the “BAW & CL Rating Table” was used (See Table Section).
Bioassays on CL were conducted using a 128-well diet tray assay. one to five second instar CL larvae were placed in each well (3 mL) of the diet tray that had been previously filled with 1 mL of artificial diet to which 50 μg/cm^2 of the test molecule (dissolved in 50 μL of 90:10 acetone-water mixture) had been applied (to each of eight wells) and then allowed to dry. Trays were covered with a clear self-adhesive cover, vented to allow gas exchange, and held at 25° C., 14:10 light-dark for five to seven days. Percent mortality was recorded for the larvae in each well; activity in the eight wells was then averaged. The results are indicated in the table entitled “Table ABC: Biological Results” (See Table Section).

[2] = system: Beet Armyworm (Spodoptera exigua, LAPHEG); experiment: Bioassay on Beet Armyworm (BAW), 128-well diet tray assay; type: in vivo; details: Species BAW (Beet Armyworm), read-out: BAW (Biological Results, rating)
Description: as §1
Bioassays on BAW were conducted using a 128-well diet tray assay. One to five second instar BAW larvae were placed in each well (3 mL) of the diet tray that had been previously filled with approximately 1.5 mL of artificial diet to which 50 μg/cm^2 of the test molecule (dissolved in 50 μL of 90:10 acetone-water mixture) had been applied (to each of eight wells) and then allowed to dry. Trays were covered with a clear self-adhesive cover, vented to allow gas exchange, and held at 25° C., 14:10 light-dark for five to seven days. Percent mortality was recorded for the larvae in each well; activity in the eight wells was then averaged. The results are indicated in the table entitled “Table ABC: Biological Results” (See Table Section).

Structure (SMILES) | pest or weed control at 50 µg/cm2 [1] [%] | pest or weed control at 50 µg/cm2 [2] [%]
CN(C(=O)c1cc(NC(=O)[C@H]2[C@H](c3cc(Cl)cc(Cl)c3)C2(Cl)Cl)ccc1Cl)c1ccc(C#N)cc1F (relative stereo) [F106, trans-2-Chloro-N-(4-cyano-2-fluorophenyl)-5-(2,2-dichloro-3-(3,5-dichlorophenyl)cyclopropane-1-carboxamido)-N-methylbenzamide] | 50 to 100 | 50 to 100
CN(C(=O)c1cc(NC(=O)[C@H]2[C@H](c3ccc(Cl)c(Cl)c3)C2(Cl)Cl)ccc1Cl)c1ccc(C#N)cc1F (relative stereo) [F107, trans-2-Chloro-N-(4-cyano-2-fluorophenyl)-5-(2,2-dichloro-3-(3,4-dichlorophenyl)cyclopropane-1-carboxamido)-N-methylbenzamide] | 50 to 100 | 50 to 100
CN(C(=O)c1cc(NC(=O)[C@H]2[C@H](c3cc(Cl)c(Cl)c(Cl)c3)C2(Cl)Cl)ccc1Cl)c1ccc(C#N)cc1F (relative stereo) [F108, trans-2-Chloro-N-(4-cyano-2-fluorophenyl)-5-(2,2-dichloro-3-(3,4,5-trichlorophenyl)cyclopropane-1-carboxamido)-N-methylbenzamide] | 50 to 100 | 50 to 100
O=C(Nc1ccc(F)cc1)c1cc(NC(=O)[C@H]2[C@H](c3ccccc3)C2(Cl)Cl)ccc1Cl (relative stereo) [F109, trans-2-Chloro-5-(2,2-dichloro-3-phenylcyclopropane-1-carboxamido)-N-(4-fluorophenyl)benzamide] | 50 to 100 | 50 to 100
CN(C(=O)c1cc(NC(=O)[C@H]2[C@H](c3ccccc3)C2(Cl)Cl)ccc1Cl)c1ccc(F)cc1 (relative stereo) [F110, trans-2-Chloro-5-(2,2-dichloro-3-phenylcyclopropane-1-carboxamido)-N-(4-fluorophenyl)-N-methylbenzamide] | 50 to 100 | 50 to 100
O=C(Nc1c(F)cccc1F)c1cc(NC(=O)[C@H]2[C@H](c3ccccc3)C2(Cl)Cl)ccc1Cl (relative stereo) [F111, trans-2-Chloro-5-(2,2-dichloro-3-phenylcyclopropane-1-carboxamido)-N-(2,6-difluorophenyl)benzamide] | 50 to 100 | 50 to 100
CN(C(=S)c1cc(NC(=O)[C@H]2[C@H](c3cc(Cl)cc(Cl)c3)C2(Cl)Cl)ccc1Cl)c1ccc(F)cc1 (relative stereo) [F112, trans-2,2-Dichloro-N-(4-chloro-3-((4-fluorophenyl)(methyl)carbamothioyl)phenyl)-3-(3,5-dichlorophenyl)cyclopropane-1-carboxamide] | 50 to 100 | 50 to 100
O=C(Nc1ccc(Cl)c(C(=S)Nc2ccc(F)cc2)c1)[C@H]1[C@H](c2cc(Cl)cc(Cl)c2)C1(Cl)Cl (relative stereo) [F113, trans-2,2-Dichloro-N-(4-chloro-3-((4-fluorophenyl)carbamothioyl)phenyl)-3-(3,5-dichlorophenyl)cyclopropane-1-carboxamide] | 50 to 100 | 50 to 100
CSc1ccc(NC(=O)[C@H]2[C@H](c3cc(Cl)cc(Cl)c3)C2(Cl)Cl)cc1C(=O)Nc1ccc(F)cc1 (relative stereo) [F115, trans-5-(2,2-Dichloro-3-(3,5-dichlorophenyl)cyclopropane-1-carboxamido)-N-(4-fluorophenyl)-2-(methylthio)benzamide] | 50 to 100 | 50 to 100
Cc1c(Cl)cc([C@H]2[C@H](C(=O)Nc3ccc(Cl)c(C(=O)Nc4ccc(F)cc4)c3)C2(Cl)Cl)cc1Cl (relative stereo) [F119, trans-2-Chloro-5-(2,2-dichloro-3-(3,5-dichloro-4-methylphenyl)cyclopropane-1-carboxamido)-N-(4-fluorophenyl)benzamide] | 50 to 100 | 50 to 100
Cc1c(Cl)cc([C@H]2[C@H](C(=O)Nc3ccc(Cl)c(C(=O)N(C)c4ccc(F)cc4)c3)C2(Cl)Cl)cc1Cl (relative stereo) [F120, trans-2-Chloro-5-(2,2-dichloro-3-(3,5-dichloro-4-methylphenyl)cyclopropane-1-carboxamido)-N-(4-fluorophenyl)-N-methylbenzamide] | 50 to 100 | 50 to 100
Cc1c(Cl)cc([C@H]2[C@H](C(=O)Nc3ccc(Cl)c(C(=O)Nc4c(F)cccc4F)c3)C2(Cl)Cl)cc1Cl (relative stereo) [F121, trans-2-Chloro-5-(2,2-dichloro-3-(3,5-dichloro-4-methylphenyl)cyclopropane-1-carboxamido)-N-(2,6-difluorophenyl)benzamide] | 50 to 100 | 50 to 100
Cc1cc([C@H]2[C@H](C(=O)Nc3ccc(Cl)c(C(=O)Nc4c(F)cccc4F)c3)C2(Cl)Cl)cc(Cl)c1Cl (relative stereo) [F125, trans-2-Chloro-5-(2,2-dichloro-3-(3,4-dichloro-5-methylphenyl)cyclopropane-1-carboxamido)-N-(2,6-difluorophenyl)benzamide] | 50 to 100 | 50 to 100
O=C(Nc1ccc(F)cc1)c1cccc(NC(=O)[C@H]2[C@H](c3cc(Cl)cc(Cl)c3)C2(Cl)Cl)n1 (relative stereo) [F133, trans-6-(2,2-Dichloro-3-(3,5-dichlorophenyl)cyclopropane-1-carboxamido)-N-(4-fluorophenyl)picolinamide] | 50 to 100 | 50 to 100
Cc1ccc(C(=O)Nc2ccc(F)cc2)cc1NC(=O)[C@H]1[C@H](c2cc(Cl)cc(Cl)c2)C1(Cl)Cl (relative stereo) [F134, trans-3-(2,2-Dichloro-3-(3,5-dichlorophenyl)cyclopropane-1-carboxamido)-N-(4-fluorophenyl)-4-methylbenzamide] | 50 to 100 | 50 to 100
O=C(Nc1ccc([N+](=O)[O-])cc1)c1cc(NC(=O)[C@H]2[C@H](c3cc(Cl)cc(Cl)c3)C2(Cl)Cl)ccc1Cl (relative stereo) [F137, trans-2-chloro-5-(2,2-dichloro-3-(3,5-dichlorophenyl)cyclopropane-1-carboxamido)-N-(4-nitrophenyl)benzamide] | 50 to 100 | 50 to 100
O=C(Nc1cnns1)c1cc(NC(=O)[C@H]2[C@H](c3cc(Cl)cc(Cl)c3)C2(Cl)Cl)ccc1Cl (relative stereo) [F138, trans-2-Chloro-5-(2,2-dichloro-3-(3,5-dichlorophenyl)cyclopropane-1-carboxamido)-N-(1,2,3-thiadiazol-5-yl)benzamide] | 50 to 100 | 50 to 100
O=C(Nc1cc[n+]([O-])cc1)c1cc(NC(=O)[C@H]2[C@H](c3cc(Cl)cc(Cl)c3)C2(Cl)Cl)ccc1Cl (relative stereo) [F140, trans-4-(2-Chloro-5-(2,2-dichloro-3-(3,5-dichlorophenyl)cyclopropane-1-carboxamido)benzamido)pyridine 1-oxide] | 50 to 100 | 50 to 100
O=C(Nc1ccc(F)cc1)c1cc(NC(=O)[C@H]2[C@H](c3cc(Cl)cc(Cl)c3)C2(Cl)Cl)cc[n+]1[O-] (relative stereo) [F141, trans-4-(2,2-Dichloro-3-(3,5-dichlorophenyl)cyclopropane-1-carboxamido)-2-((4-fluorophenyl)carbamoyl)pyridine 1-oxide] | 50 to 100 | 50 to 100
CS(=O)(=O)c1ccc(NC(=O)c2cc(NC(=O)[C@H]3[C@H](c4cc(Cl)cc(Cl)c4)C3(Cl)Cl)ccc2Cl)cc1 (relative stereo) [F143, trans-2-Chloro-5-(2,2-dichloro-3-(3,5-dichlorophenyl)cyclopropane-1-carboxamido)-N-(4-(methylsulfonyl)phenyl)benzamide] | 50 to 100 | 50 to 100
N#Cc1ccc(NC(=O)c2cc(NC(=O)[C@H]3[C@H](c4cc(Cl)cc(Cl)c4)C3(Cl)Cl)ccc2Cl)c(F)c1 (relative stereo) [F144, trans-2-Chloro-N-(4-cyano-2-fluorophenyl)-5-(2,2-dichloro-3-(3,5-dichlorophenyl)cyclopropane-1-carboxamido)benzamide] | 50 to 100 | 50 to 100
O=C(Nc1ncco1)c1cc(NC(=O)[C@H]2[C@H](c3cc(Cl)cc(Cl)c3)C2(Cl)Cl)ccc1Cl (relative stereo) [F145, trans-2-Chloro-5-(2,2-dichloro-3-(3,5-dichlorophenyl)cyclopropane-1-carboxamido)-N-(oxazol-2-yl)benzamide] | 50 to 100 | 50 to 100
